Earlier results, collected in US20080241117A1, “Oral Care Compositions Containing a Mixed Tocopherol Component” (priority 2007, published 2008).
Read-outs that look alike come from different tables or passages of the source.

Key:
[1] = system: prostaglandin E2 in gingival crevicular fluid; details: applied topically in rinse form
gingivitis [2] = details: applied topically in toothpaste; humans
[3] = applied topically in toothpaste
gingivitis [4] = details: applied topically in toothpaste; primates

| penetration of gum tissue [3] | Compound | level of prostaglandin E2 in gingival crevicular fluid [1] | effect on gingivitis (gingivitis [2]) | effect on gingivitis (gingivitis [4]) |
| --- | --- | --- | --- | --- |
| – | tocopherol [vitamin E] | reduced level of prostaglandin E2 | – | – |
| penetrates gum tissue | Cc1c(C)c2c(c(C)c1O)CC[C@@](C)(CCC[C@H](C)CCC[C@H](C)CCCC(C)C)O2 [alpha tocopherol] | – | fails to provide an effect on gingivitis | fails to provide an effect on gingivitis |
